According to US6902933B2, “Surface transfection and expression procedure” (Regents of the University of Michigan, priority 2000, dated 2005):

Columns and labels:
Format in all cases: cell-based
[1] = target: T1, human D1 dopamine receptor (Homo sapiens, UniProt P21728); experiment: STEP D1 dopamine receptor activation assay with pCRE-d2EGFP reporter; details: 48 hours, C1-APB 1 micromolar; for Pixels per spot in STEP D1 activation experiment: HEK-293T cells transfected with CMV.D1 and pCRE-d2EGFP, GFP fluorescence, MCID image analysis
T1 construct: expressed in transfected cells; host or cells: HEK-293T
T1 sequence (P21728 whole entry): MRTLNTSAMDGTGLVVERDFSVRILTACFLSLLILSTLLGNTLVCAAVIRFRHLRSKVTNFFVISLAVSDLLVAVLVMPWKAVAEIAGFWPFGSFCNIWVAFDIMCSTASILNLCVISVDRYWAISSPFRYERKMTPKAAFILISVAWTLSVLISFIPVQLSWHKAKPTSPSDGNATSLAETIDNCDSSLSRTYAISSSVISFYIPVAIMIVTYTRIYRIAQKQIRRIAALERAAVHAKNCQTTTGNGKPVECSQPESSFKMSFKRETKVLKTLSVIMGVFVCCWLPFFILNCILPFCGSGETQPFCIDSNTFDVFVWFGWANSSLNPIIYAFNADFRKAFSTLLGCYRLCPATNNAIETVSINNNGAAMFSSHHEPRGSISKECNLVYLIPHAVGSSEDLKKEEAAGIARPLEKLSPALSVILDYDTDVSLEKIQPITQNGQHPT
Procedure: (§1) The purpose of the experiment was to measure activation of the D1 dopamine receptor by a D1 receptor agonist, Chloro-APB (C1-APB). Activation of the D1 receptor by C1-APB could be measured by virtue of it's coupling to adenylate cyclase and subsequent generation of cyclic AMP, as indicated by the pathway shown in FIG. 3.
Three hundred nanograms of pCMV.D1 (or control vector pCMV.Neo) and 300 ng of pCRE-d2EGFP in 10 microliters were mixed with 10 microliters of transferrin-polylysine complex (1 mg/ml). After 10 minutes, 10 microliters of lipofectamine (1 mg/ml) were added and the mixture incubated for an addition 10 minutes. Spots of approximately 100 nanoliters were placed onto four different polylysine coated microscope slides, and the spots allowed to dry under ambient room conditions. […] The three slides plated with cells were grown in the presence of either C1-APB or the phosphodiesterase inhibitor IBMX or both C1-APB and IBMX.
(§2) After 48 hours, the cells were examined using fluorescence microscopy.

[2] = test system: cyclic AMP responsive promoter (pCRE-d2EGFP) in HEK-293T cells; experiment: STEP D1 activation experiment, control vector pCMV.Neo with pCRE-d2EGFP reporter; details: HEK-293T cells transfected with control vector CMV.Neo and pCRE-d2EGFP; 48 hours; GFP fluorescence, MCID image analysis
Procedure: as §1
Three hundred nanograms of pCMV.D1 (or control vector pCMV.Neo) and 300 ng of pCRE-d2EGFP in 10 microliters were mixed with 10 microliters of transferrin-polylysine complex (1 mg/ml). After 10 minutes, 10 microliters of lipofectamine (1 mg/ml) were added and the mixture incubated for an addition 10 minutes. Spots of approximately 100 nanoliters were placed onto four different polylysine coated microscope slides, and the spots allowed to dry under ambient room conditions. HEK-293T cells were then plated onto three slides, while one slide was grown only in media containing serum. The three slides plated with cells were grown in the presence of either C1-APB or the phosphodiesterase inhibitor IBMX or both C1-APB and IBMX.
as §2

[3] = test system: tetracycline responsive element; experiment: Transactivation assay using a tetracycline inducible system (pBi-EGFP) after STEP transfection; details: HEK TetOn cells; 10 mg/ml of doxycycline; 48 hours after plating
Procedure: To determine whether STEP transfection could be modified to generate inducible expression of a protein, the tetracycline inducible system developed by Bujard and coworkers was employed (Baron et al. (2000) Proc Natl Acad Sci USA 96:1013-1018). […] Two DNA complexes were prepared for these experiments, one containing the pBi-EGFP plasmid (Clontech) directing the expression of EGFP under the control of a tetracycline responsive element and another complex containing pEGFP-C1 plasmid DNA (Clontech) with EGFP expression under the control of the strong human cytomegalovirus early promoter. Spots for each of these complexes were applied next to each other on each of two different microscope slides and HEK TetOn cells were plated onto each slide in separate 10 cm culture dishes. Twenty-four hours after transfection, one plate was incubated in DMEM and 10% FCS while the other was incubated in the same media containing 10 mg/ml of doxycycline. Fluorescence photomicrographs were prepared 48 hours after plating of the cells. […] In the absence of doxycycline, none of the cells on the pBiEGFP spot were fluorescent while approximately 30% of the cells on the pEGFP-C1 spot were fluorescent.

human MC1R = target: T2, human MC1R (Homo sapiens, UniProt Q01726); experiment: Dose response of melanocortin receptor 1 agonists, pCRE-Luciferase reporter, 96 well STEP; details: increasing concentrations, 6 hours; HEK-239T cells; FIG. 8
T2 construct: expressed in transfected cells; host or cells: HEK-293T
T2 sequence (Q01726 whole entry): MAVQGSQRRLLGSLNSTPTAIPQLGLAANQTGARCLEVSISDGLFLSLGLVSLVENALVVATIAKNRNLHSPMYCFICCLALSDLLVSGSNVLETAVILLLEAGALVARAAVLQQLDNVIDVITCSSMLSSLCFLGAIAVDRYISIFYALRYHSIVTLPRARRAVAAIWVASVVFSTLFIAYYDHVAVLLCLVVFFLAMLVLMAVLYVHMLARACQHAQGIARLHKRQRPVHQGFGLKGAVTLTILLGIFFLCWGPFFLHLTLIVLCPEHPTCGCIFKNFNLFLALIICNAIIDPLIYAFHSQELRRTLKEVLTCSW
Procedure: In the following examples a polylysine coated 96 well plate was used. DNA transfection complexes were generated essentially as described in Example 1. The components a-d from Example 1 were added sequentially but without the 5 min. incubation. The DNA transfection complexes were applied by direct pipetting (complexes can also be applied by automated liquid handling systems) to the bottom of each well in a total volume of 20 μl, and the spots were allowed to dry under ambient conditions until completely dry. HEK-293T cells were prepared as in Example 1.200 μl of media containing 10^4 HEK-293T cells were added to each well. When using the expression vector pZsGreen-N1 (Clontech BD), which encodes a variant of wild-type Zoanthus sp. green fluorescent protein ZsGreen; (excitation maximum=496 nm; emission maximum=506 nm. Ref: Matz, M. V., et al. (1999) Nature Biotech. 17:969-973), the cells were visualized using fluorescent microscopy after 24 and 48 hours following transfections.
DNA complexes were formed with human MC1R cDNA (GenBank Accession No. X67594) and with either pCRE-Luciferase or the control plasmid pTal-Luciferase (lacking the CRE binding sequences). The complexes were applied to the surface of individual wells of a polylysine coated 96 well plate; after complete drying, HEK-239T cells were then added. […]

[4] = test system: rat PC-12 pheochromocytoma; experiment: STEP transfection efficiency with different cell surface ligands in the transfection complex; details: PC-12 cells; ligand in the transfection complex; GFP fluorescence; penton protein 0.64 mg/ml
Procedure: In the following experiments, transfection complexes were formed as described in Example 1, except that in the preparation of some transfection complexes, purified penton protein was used instead of transferring the penton protein was used at a concentration of 0.64 mg/ml. Transfection complexes were thus prepared with either transferrin or penton protein. After immobilizing the complexes as described in Example 1, the cell lines rat PC-12 pheochromocytoma and HEK-293T were transfected as described in Example 1.
The results are shown in FIG. 4 as sets of images; the cell line is indicated at the top of the images, and the ligand used in the transfection complex is indicated to the right of the images. The images under each indicated cell line are either brightfield images (to the left) or fluorescence images (to the right).

Molecule	Pixels per spot in STEP D1 activation experiment [1]	Pixels per spot in STEP D1 activation experiment [2]	luciferase activity, dose response curve of the MC1R (human MC1R)	also measured
C=CCN1CCc2c(cc(O)c(O)c2Cl)C(c2ccccc2)C1 (stereo not drawn) [Cl-APB, Chloro-APB]	447 + 38 pixels per spot	46 + 38 pixels per spot	–	expression of the green fluorescent protein reporter ([1]; cells expressing the D1 receptor, fluorescence microscopy): significantly greater expression
CC(C)Cn1c(=O)n(C)c(=O)c2[nH]cnc21 [UBMX, IBMX]	165 + 35 pixels per spot	65 + 32 pixels per spot	–	–
C[C@H]1c2cccc(O)c2C(=O)C2=C(O)[C@]3(O)C(=O)C(C(N)=O)=C(O)[C@@H](N(C)C)[C@@H]3[C@@H](O)[C@@H]21 [doxycycline]	–	–	–	cells on the pBi-EGFP spot with detectable GFP expression [3]: 20%
N-acetyl-[Cys^4,10,D-Phe^7]-αMSH	–	–	signal is well above background	–
transferrin: ligand for a receptor which is endocytosed, used as complexing agent in the transfection complex	–	–	–	transfection efficiency [4]: less than 10%
αMSH	–	–	signal is well above background	–
